From publication PMC7170716 (Nature, 2020)

Experiments:
[1] = target: T1, M. smegmatis SID (Mycolicibacterium smegmatis, UniProt A0R6H8); assay: SPR, biotinylated SID on chip, equilibrium fit; format: binding; details: HPLC-purified Fe-cMBT (MW 799 Da), 0-100 μM; single experiment
T1 sequence (A0R6H8 1-250 limits assumed): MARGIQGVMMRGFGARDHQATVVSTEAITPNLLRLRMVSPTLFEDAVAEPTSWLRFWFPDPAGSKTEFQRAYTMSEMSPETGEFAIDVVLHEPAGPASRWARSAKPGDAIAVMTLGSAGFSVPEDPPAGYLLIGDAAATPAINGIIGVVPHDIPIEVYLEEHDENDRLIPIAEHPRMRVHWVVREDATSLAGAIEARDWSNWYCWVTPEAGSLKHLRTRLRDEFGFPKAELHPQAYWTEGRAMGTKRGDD

[2] = target: T2, M. thermoresistibile IrtAB (full-length) (Mycolicibacterium thermoresistibile, UniProt G7CBF5+G7CBF6); assay: ATPase stimulation in nanodiscs, malachite green; format: biochemical; details: 2.5 mM ATP, 10 mM MgSO4, 37 °C, acyl chain length not defined
T2 sequence (G7CBF5 1-908): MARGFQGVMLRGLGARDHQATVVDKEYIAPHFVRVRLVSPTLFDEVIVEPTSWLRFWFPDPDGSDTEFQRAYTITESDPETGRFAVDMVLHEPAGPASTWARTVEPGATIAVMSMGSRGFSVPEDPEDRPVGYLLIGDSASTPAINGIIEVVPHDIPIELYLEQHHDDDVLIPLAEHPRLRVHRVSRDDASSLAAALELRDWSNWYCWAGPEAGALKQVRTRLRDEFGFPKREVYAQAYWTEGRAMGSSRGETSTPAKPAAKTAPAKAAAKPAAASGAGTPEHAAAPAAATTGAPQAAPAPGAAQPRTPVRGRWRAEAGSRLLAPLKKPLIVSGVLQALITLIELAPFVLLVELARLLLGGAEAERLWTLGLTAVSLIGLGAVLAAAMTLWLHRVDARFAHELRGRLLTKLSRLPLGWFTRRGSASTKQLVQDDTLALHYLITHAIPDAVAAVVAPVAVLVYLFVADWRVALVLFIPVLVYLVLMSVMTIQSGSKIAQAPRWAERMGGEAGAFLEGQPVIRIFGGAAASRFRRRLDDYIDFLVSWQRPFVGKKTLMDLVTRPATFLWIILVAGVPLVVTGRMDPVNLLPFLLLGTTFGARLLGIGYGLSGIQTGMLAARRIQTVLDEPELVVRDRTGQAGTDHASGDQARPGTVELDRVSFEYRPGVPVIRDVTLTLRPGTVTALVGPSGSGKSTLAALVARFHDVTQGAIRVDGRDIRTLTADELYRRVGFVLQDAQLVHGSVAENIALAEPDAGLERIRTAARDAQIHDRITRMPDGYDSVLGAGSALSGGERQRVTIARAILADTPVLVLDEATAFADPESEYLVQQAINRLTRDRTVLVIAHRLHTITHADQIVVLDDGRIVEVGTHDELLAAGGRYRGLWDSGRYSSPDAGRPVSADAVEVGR
T2 sequence (G7CBF6 1-579): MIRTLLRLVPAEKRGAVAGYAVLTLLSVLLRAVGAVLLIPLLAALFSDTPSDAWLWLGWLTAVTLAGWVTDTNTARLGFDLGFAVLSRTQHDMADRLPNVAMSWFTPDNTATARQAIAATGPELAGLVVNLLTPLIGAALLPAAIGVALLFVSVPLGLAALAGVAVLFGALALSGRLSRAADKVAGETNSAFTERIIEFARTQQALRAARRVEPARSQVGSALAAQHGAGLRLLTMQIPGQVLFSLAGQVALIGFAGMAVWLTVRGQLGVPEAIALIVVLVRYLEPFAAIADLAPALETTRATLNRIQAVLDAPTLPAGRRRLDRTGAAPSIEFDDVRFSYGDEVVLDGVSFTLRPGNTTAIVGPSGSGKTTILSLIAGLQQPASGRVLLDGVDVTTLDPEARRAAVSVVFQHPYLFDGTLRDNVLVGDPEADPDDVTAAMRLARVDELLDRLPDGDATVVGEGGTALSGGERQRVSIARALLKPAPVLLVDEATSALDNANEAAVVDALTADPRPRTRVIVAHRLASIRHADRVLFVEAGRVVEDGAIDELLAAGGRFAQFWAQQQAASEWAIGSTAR

Kd [1] [µM] | fold ATPase stimulation ([2]; Fe-cMBT 0.5-40 μM) [fold] | fold ATPase stimulation ([2]; Fe-MBT 0.5-40 μM) [fold] | Substance
> 200 | > 10 |  | Fe-cMBT
 |  | > 38 | Fe-MBT
